Source: publication PMC6154738, “Anti-Onchocerca and Anti-Caenorhabditis Activity of a Hydro-Alcoholic Extract from the Fruits of Acacia nilotica and Some Proanthocyanidin Derivatives” (Molecules : A Journal of Synthetic Chemistry and Natural …, 2017)
Converted amounts (≈) assume the structure as drawn. Read-outs that look alike come from different tables or passages of the source.

Tests used:
[1] = system: O. ochengi; experiment: Anti-Onchocerca activity, all forms of the parasite (summary statements); conditions: read-out: LC50 against O. ochengi (all three forms)
Method: (§1) Adult worms (six individuals per well for males and one per well for the female) and Mf were washed twice and were subsequently transferred to RPMI-1640 medium supplemented with L-glutamine, 100 U/mL penicillin and 100 µg/mL streptomycin and incubated at 37 °C in 24-well plates (96-well plate for Mf) with different concentrations of the drugs tested. Worm mortality was checked by observation under the binocular microscope after 48 h. After shaking, immotile and fully-elongated worms were considered to be dead. All tests were done in three independent triplicate determinations.

[2] = system: O. ochengi males; experiment: microbe, parasite or virus in culture; design: species or system Onchocerca ochengi; conditions: for LC50: Onchocerca ochengi, 48 h; for Selectivity Index (SI) O. ochengi Males: SI = CC50 on Caco-2/LC50 on worm
Excerpt: The adult male worms were isolated as previously describe by Ndjonka et al. from fresh pieces of cattle skin (cow-udder) with palpable nodules obtained from the communal slaughter house of Ngaoundere in the Adamawa region of Cameroon. Nodules removed from the skin were brought to the laboratory, washed, drained and sterilized with 70% ethanol for dissection. After dissection of nodules, O. ochengi were extracted, isolated and washed three times in sterile phosphate-buffered saline (PBS). To analyze the anthelmintic activity of extract, fractions and pure compounds, the worms were incubated at 37 °C.
as §1

[3] = system: O. ochengi females; experiment: microbe, parasite or virus in culture; design: species or system Onchocerca ochengi; conditions: for LC50: Onchocerca ochengi, 48 h; for Selectivity Index (SI) O. ochengi Females: SI = CC50 on Caco-2/LC50 on worm
Method: The adult female worms were isolated by digestion of the nodules with collagenase at 37 °C. The female worms were cultured in a CO2-incubator [67]. For anthelmintic activity, they were incubated with the crude extracts, fractions and pure compounds.
as §1

[4] = system: O. ochengi microfilariae; experiment: microbe, parasite or virus in culture; design: species or system Onchocerca ochengi; conditions: for LC50: Onchocerca ochengi, 48 h; for Selectivity Index (SI) O. ochengi Microfilariae: SI = CC50 on Caco-2/LC50 on worm
Method: Microfilariae were isolated as describe by Cho-Ngwa et al. and Ndjonka et al.. About 10 skin snips were obtained from different locations of the skin. The skin snips were then incubated at 37 °C in PBS to let Mf emerge. The highly motile Mf were concentrated by centrifugation at 400× g for 10 min and quantified. The Mf were incubated at 37 °C with the crude extract, fractions and pure compounds.
as §1

[5] = In vitro cytotoxicity (MTT) and CC50 determination; assay type: cell-based; conditions: human; for CC50 at 48 h: Caco-2, CC50 after 48 h calculated in µM, read-out: Cytotoxicity CC50, Caco-2 (in brackets) (converted); for CC50 at 72 h: Caco-2, MTT, read-out: Cytotoxicity, means CC50 ± SD, Caco-2
Method: Cell culture: […] cells at Passage 70 were kindly provided by Prof. Hensel, Institute of Pharmaceutical Biology and Phytochemistry, University of Münster, and were cultured as previously describe by Zumdick et al..
Cytotoxicity test: The cytotoxicity assays were performed according to the method of Rahman et al.. Briefly, 1.5 × 10^4 viable cells/well were seeded in a 96-well plate and incubated for 24 to 48 h. […] DMEM samples were used as the negative control. […] The medium was removed, and formazan, generated by the activity of dehydrogenases, was solubilized with 70 µL of acidified isopropanol (0.4 M HCl). The amount of MTT-formazan that is directly proportional to the number of living cells was determined by measuring the optical density (OD) at 540 nm using a spectrophotometer. All controls used were treated equally. As control and to determine 100% growth, Caco-2 cells were grown in the absence of drugs so as to calculate cell viability. All determinations were performed in triplicate. […] The selectivity index (SI) values were calculated as the ratio: SI = CC50 of drug on Caco2/LC50 of drug on worm.

[6] = system: C. elegans N2 Bristol WT; experiment: microbe, parasite or virus in culture; conditions: for LC50: Caenorhabditis elegans, 48 h; for Selectivity Index (SI) C. elegans Wild Type: SI = CC50 on Caco-2/LC50 on worm
Method: (§2) All strains were obtained from the Caenorhabditis Genetic Centre (CGC, Minneapolis, MN, USA). Strains were maintained at 20 °C on nematode growth medium (NGM). All worms were age-synchronized and obtained from eggs that were isolated by bleaching.
(§3) Young adult (L4 stage) worms were used to assess drug lethality. Monitored endpoint was 48 h mortality. Tests were performed in 24-well plates. Five hundred (500) microliters of test solution, which is M9-buffer (3 g KH2PO4, 6 g Na2HPO4, 5 g NaCl, 0.25 g MgSO4.7H2O, in 1 L of water after been autoclaved supplemented with 2% glucose, 0.5% cholesterol), were distributed in 24-well plates. The volume of M9-buffer equivalent to the drug to be added for each drug final concentration (in each test, three to six concentrations were used) was removed. Untreated worms in M9-buffer were used as negative control. […] Crude extract fraction (stock solution at 100 mg/mL) and pure compound (stock solution at 100 mg/mL) previously dissolved in M9-buffer were then added in well plates at increasing concentration (varying from 0 to 1000 or 1500 µg/mL for extract and fractions; 0 to 100 or 150 µg/mL). The young adult (10 to 15 ± 2) from the axenic culture (without food source) were then added at the test solution. […] Treatments were replicated three times.

[7] = system: C. elegans CB3474 (ben-1(e1880) III); experiment: microbe, parasite or virus in culture; conditions: Caenorhabditis elegans, 48 h
Method: as §2, §3

[8] = system: C. elegans VC722 (glc-2(ok1047) I); experiment: microbe, parasite or virus in culture; conditions: Caenorhabditis elegans, 48 h
Method: as §2, §3

[9] = system: C. elegans CB211 (lev-1(e211) IV); experiment: microbe, parasite or virus in culture; conditions: Caenorhabditis elegans, 48 h
Method: as §2, §3

[10] = system: C. elegans ZZ16 (lev-9(x16) X); experiment: microbe, parasite or virus in culture; conditions: Caenorhabditis elegans, 48 h
Method: as §2, §3

[11] = system: C. elegans DA1316 (avr-14(ad1302) I avr-15(ad1051) glc-1(pk54)); experiment: microbe, parasite or virus in culture; conditions: Caenorhabditis elegans, 48 h
Method: as §2, §3

[12] = system: Wistar rats; experiment: Acute oral toxicity on rats
Excerpt: Adult Wistar rats (Rattus norvegicus), males aged 7 to 8 weeks and weighing 150 to 200 g, used for the experiments were obtained from LANAVET (Laboratoire National Vétérinaire, Garoua, Cameroon). The rats were acclimatized for one week in the Veterinary Research Laboratory of the Institute of Agricultural Research for Development, Wakwa, Cameroon, before initiating experiments. Animals were housed in groups of three (one group for the negative control, six groups for each drug at the first phase, six others at the second phase) under ambient temperatures (23 °C ± 1 °C) with relative humidity 55 ± 5% and 12 h light/dark cycle in polycarbonate cages. […] They were monitored by a veterinarian for health status.
Acute oral toxicity (LD50, that is the dose that kills 50% of animals of the tested group) was measured using the method of the OECD guidelines for the testing of chemicals [56] following the European Community guidelines for the protection of animals used in experiments [69] and respecting the 3Rs (Replacement, Refinement, Reduction) [70]. Drugs in distilled water were orally administered separately at doses of 10 mg/kg, 100 mg/kg and 1000 mg/kg body weight. The negative controls were distilled water-administered rats. They were given to three groups of three rats each and observed for 24 h. […] The test was done at a single oral dose for each rat in a 5 mL/kg volume. The experimental animals were starved for 24 h before and 4 h after treatment. […] The appearance of toxic symptoms, such as behavioral changes, locomotion, convulsions and mortality, was observed and recorded. Animals were observed constantly for the first 30 min after administration and, thereafter, every 4 h up to 24 h and, subsequently, once a day for up to 14 days.

[13] = system: O. ochengi; conditions: cited from earlier work
[14] = read-out: LC50/48 h (in brackets)
[15] = Phase 1, 10 mg/kg single oral dose
[16] = Phase 1, 100 mg/kg single oral dose
[17] = Phase 1, 1000 mg/kg single oral dose
[18] = Phase 2, 1500 mg/kg single oral dose
[19] = Phase 2, 3000 mg/kg single oral dose
[20] = Phase 2, 5000 mg/kg single oral dose

Structure (SMILES)	LC50 ([2]; read-out: LC50/48 h) [µg/mL]	LC50 [2, 14] [µM]	Selectivity Index (SI) O. ochengi Males [2]	LC50 ([3]; read-out: LC50/48 h) [µg/mL]	LC50 [3, 14] [µM]	Selectivity Index (SI) O. ochengi Females [3]	LC50 ([4]; read-out: LC50/48 h) [µg/mL]	LC50 [4, 14] [µM]	Selectivity Index (SI) O. ochengi Microfilariae [4]	CC50 at 48 h [5] [µM]	CC50 at 72 h [5] [µg/mL]	LC50 ([6]; read-out: LC50/48 h) [µg/mL]	LC50 [6, 14] [µM]	Selectivity Index (SI) C. elegans Wild Type [6]	LC50 ([7]; read-out: LC50/48 h) [µg/mL]	LC50 [7, 14] [µM]	LC50 ([8]; read-out: LC50/48 h) [µg/mL]	LC50 [8, 14] [µM]	LC50 ([9]; read-out: LC50/48 h) [µg/mL]	LC50 ([10]; read-out: LC50/48 h) [µg/mL]	other results
O=C(OC1Cc2c(O)cc(O)cc2OC1c1cc(O)c(O)c(O)c1)c1cc(O)c(O)c(O)c1 (single isomer, unassigned; (-)) [EGCG, (−)-epigallocatechin-3-O-gallate]	1.2 ± 0.5	2.6	50.8	1 ± 0.5	2.3	60.9	1.3 ± 0.2	2.8	46.9	133	60.9 ± 0.8 (≈ 133 µM)	49.8 ± 0.8	109	1.2	35.7 ± 1	77.9	43.7 ± 2.1	95.4	26.3 ± 1.3	> 100	LC50 [1]: < 2.5 µg/mL; LC50 [9, 14]: 57.4 µM; LC50 ([11]; read-out: LC50/48 h): 40.8 ± 0.3 µg/mL; LC50 [11, 14]: 89.1 µM
CCCSc1ccc2nc(NC(=O)OC)[nH]c2c1 [Albendazole, reference compound]	4.2 ± 0.3	15.7	7	1 ± 0.2	3.9	29.4	2.1 ± 0.5	7.8	14	111	29.4 ± 0.5 (≈ 111 µM)	–	26.4	4.1	> 100	–	–	–	–	–	Mortality of rats: rat number end/start [12, 15]: 0/3; Mortality of rats: rat number end/start [12, 16]: 0/3; Mortality of rats: rat number end/start [12, 17]: 0/3; Mortality of rats: rat number end/start [12, 18]: 0/3; Mortality of rats: rat number end/start [12, 19]: 0/3; Mortality of rats: rat number end/start [12, 20]: 0/3
O=C(O[C@H]1Cc2c(O)cc(O)cc2O[C@@H]1c1ccc(O)c(O)c1)c1cc(O)c(O)c(O)c1 [CG, (+)-catechin-3-O-gallate]	7.6 ± 0.2	17.2	8.7	4.5 ± 0.3	10.2	14.7	4.2 ± 0.1	9.4	15.8	150	66.3 ± 0.6 (≈ 150 µM)	90.6 ± 0.07	205	0.7	95.2 ± 0.3	215	91.8 ± 0.3	208	96.4 ± 0.1	95.3 ± 0.1	Mortality of rats: rat number end/start [12, 15]: 0/3; Mortality of rats: rat number end/start [12, 16]: 0/3; Mortality of rats: rat number end/start [12, 17]: 0/3; Mortality of rats: rat number end/start [12, 18]: 0/3; Mortality of rats: rat number end/start [12, 19]: 0/3; Mortality of rats: rat number end/start [12, 20]: 0/3; LC50 [9, 14]: 218 µM; LC50 [10, 14]: 215 µM; LC50 ([11]; read-out: LC50/48 h): 96.3 ± 0.3 µg/mL; LC50 [11, 14]: 218 µM
Oc1cc(O)c2c(c1)O[C@H](c1cc(O)c(O)c(O)c1)[C@H](O)C2 [EGC, (−)-epigallocatechin]	2.1 ± 0.4	6.8	22.4	3.3 ± 0.6	10.6	14.3	3.3 ± 0.5	10.6	14.3	154	47.1 ± 0.5 (≈ 154 µM)	62.7 ± 0.2	205	0.8	53.8 ± 0.9	176	93.8 ± 0.3	306	83.3 ± 0.6	92 ± 0.3	Mortality of rats: rat number end/start [12, 15]: 0/3; Mortality of rats: rat number end/start [12, 16]: 0/3; Mortality of rats: rat number end/start [12, 17]: 0/3; Mortality of rats: rat number end/start [12, 18]: 0/3; Mortality of rats: rat number end/start [12, 19]: 0/3; Mortality of rats: rat number end/start [12, 20]: 0/3; LC50 [9, 14]: 272 µM; LC50 [10, 14]: 301 µM; LC50 ([11]; read-out: LC50/48 h): 87.5 ± 0.5 µg/mL; LC50 [11, 14]: 286 µM
Oc1cc(O)c2c(c1)O[C@H](c1cc(O)c(O)c(O)c1)[C@@H](O)C2 [GC, (+)-gallocatechin]	4.2 ± 0.1	13.6	15.9	5.5 ± 0.3	18	12.1	3.2 ± 0.3	10.4	20.8	218	66.7 ± 0.7 (≈ 218 µM)	74.3 ± 0.3	242	0.9	83.1 ± 0.1	271	96.3 ± 0.07	314	21.5 ± 0.3	65.6 ± 0.2	Mortality of rats: rat number end/start [12, 15]: 0/3; Mortality of rats: rat number end/start [12, 16]: 0/3; Mortality of rats: rat number end/start [12, 17]: 0/3; Mortality of rats: rat number end/start [12, 18]: 0/3; Mortality of rats: rat number end/start [12, 19]: 0/3; Mortality of rats: rat number end/start [12, 20]: 0/3; LC50 [9, 14]: 70.2 µM; LC50 [10, 14]: 214 µM; LC50 ([11]; read-out: LC50/48 h): 82.5 ± 0.1 µg/mL; LC50 [11, 14]: 269 µM
c1ccc([C@H]2CN3CCSC3=N2)cc1 [Levamisole, reference compound]	1 ± 1	5.1	27.3	2.1 ± 0.1	10.2	13.0	1 ± 0.3	5.1	27.3	31.2	27.3 ± 0.8 (≈ 134 µM)	1.4 ± 0.2	7.2	–	–	–	–	–	> 100	> 100	–
CCCCC/C=C\C/C=C\CCCCCCCC(=O)O [linoleic acid]	–	–	–	–	–	–	–	–	–	–	–	–	–	–	–	–	–	–	–	–	LC50 [13]: 55.7 µM
